One assay has as its target HDAC 1 (Homo sapiens, UniProt Q13547). In words: HDAC inhibition by SAMDI mass spectrometry, HDAC 1. In kind it is biochemical. As to conditions: maximum tested concentration 10 μM.
Assay [1] concerns LNCaP (androgen dependent prostate cancer). As to the kind of experiment: Cell viability assay. It counts as cell-based.
The test system of assay [2] is DU-145 (androgen independent prostate cancer). In words: Cell viability assay. It counts as cell-based. Particulars: for DU-145 anti-proliferative activity (result in words): highest tested concentration 20 μM.
Assay [3] relates to T-cell leukemia cell line Jurkat. In words: Cell viability assay. In kind it is cell-based.
For another assay, the target named is T1, HDAC 8 (Homo sapiens, UniProt Q9BY41).
T1 sequence (Q9BY41 1-377): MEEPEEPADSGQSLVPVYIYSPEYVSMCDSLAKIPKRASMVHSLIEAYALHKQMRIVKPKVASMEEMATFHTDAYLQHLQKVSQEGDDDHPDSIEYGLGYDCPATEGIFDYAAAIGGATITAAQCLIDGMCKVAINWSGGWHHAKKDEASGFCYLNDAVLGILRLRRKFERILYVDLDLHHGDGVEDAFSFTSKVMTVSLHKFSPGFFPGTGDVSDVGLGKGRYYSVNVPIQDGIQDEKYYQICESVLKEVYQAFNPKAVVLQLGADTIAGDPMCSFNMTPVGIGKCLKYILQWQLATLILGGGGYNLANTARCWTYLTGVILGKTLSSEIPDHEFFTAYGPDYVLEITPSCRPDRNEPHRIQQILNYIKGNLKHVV
As to the kind of experiment: HDAC inhibition by SAMDI mass spectrometry, HDAC 8. It counts as biochemical. As to conditions: for HDAC 8 inhibition (result in words): SAMDI, maximum tested concentration 10 μM; for HDAC 8 inhibition relative to 7c: fold more active than 7c.

Another assay concerns the target T2, HDAC 6 (Homo sapiens, UniProt Q9UBN7).
T2 sequence (Q9UBN7 1-1215): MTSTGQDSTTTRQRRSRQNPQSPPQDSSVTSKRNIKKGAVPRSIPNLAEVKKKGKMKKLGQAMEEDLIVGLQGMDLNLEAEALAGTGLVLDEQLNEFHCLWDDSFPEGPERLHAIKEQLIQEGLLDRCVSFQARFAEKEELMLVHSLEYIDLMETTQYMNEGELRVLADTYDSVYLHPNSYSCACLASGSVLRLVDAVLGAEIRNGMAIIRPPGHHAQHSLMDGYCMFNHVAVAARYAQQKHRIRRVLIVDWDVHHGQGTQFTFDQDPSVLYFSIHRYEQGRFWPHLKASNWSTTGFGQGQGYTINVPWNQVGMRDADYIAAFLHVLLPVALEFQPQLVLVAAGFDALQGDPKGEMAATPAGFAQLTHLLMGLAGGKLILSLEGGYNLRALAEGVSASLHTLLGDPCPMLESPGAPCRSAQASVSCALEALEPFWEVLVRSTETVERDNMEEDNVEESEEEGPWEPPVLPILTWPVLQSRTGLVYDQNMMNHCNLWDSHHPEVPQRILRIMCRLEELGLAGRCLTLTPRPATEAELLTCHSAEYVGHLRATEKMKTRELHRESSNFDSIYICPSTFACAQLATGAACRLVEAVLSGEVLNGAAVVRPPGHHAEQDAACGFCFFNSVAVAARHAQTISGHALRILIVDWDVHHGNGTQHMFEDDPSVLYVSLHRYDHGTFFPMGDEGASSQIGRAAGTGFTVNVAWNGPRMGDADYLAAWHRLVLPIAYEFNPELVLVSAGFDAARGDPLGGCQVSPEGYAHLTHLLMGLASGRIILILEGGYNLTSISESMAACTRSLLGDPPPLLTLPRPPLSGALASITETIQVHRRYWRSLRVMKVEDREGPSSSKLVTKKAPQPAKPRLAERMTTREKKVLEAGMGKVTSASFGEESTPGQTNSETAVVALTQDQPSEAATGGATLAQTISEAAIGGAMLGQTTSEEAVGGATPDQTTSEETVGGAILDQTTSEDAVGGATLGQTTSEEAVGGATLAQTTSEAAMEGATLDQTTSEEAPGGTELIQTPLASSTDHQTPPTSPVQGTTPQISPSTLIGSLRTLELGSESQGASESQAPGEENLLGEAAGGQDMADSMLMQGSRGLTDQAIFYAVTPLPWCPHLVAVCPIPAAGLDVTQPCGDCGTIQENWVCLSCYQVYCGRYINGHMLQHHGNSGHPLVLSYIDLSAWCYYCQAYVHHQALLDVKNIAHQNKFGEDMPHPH
As to the kind of experiment: HDAC inhibition by SAMDI mass spectrometry, HDAC 6. In kind it is biochemical. Particulars: maximum tested concentration 10 μM.

Assay [4] relates to tubulin acetylation (HDAC6 inhibition) in LNCaP cell line. As to the kind of experiment: Western blot analysis of tubulin acetylation. It counts as cell-based. As to conditions: LNCaP cells, 4 hours, at IC50 concentration and at 20 μM. For orientation: Immunoblotting shows a protein as a band on a membrane.
Assay [5] deals with Jurkat J.gamma1 (mutant Jurkat cell line, no detectable PLCγ1 activity). As to the kind of experiment: Cell viability assay. It counts as cell-based. As to conditions: for IC50: Homo sapiens, Jurkat, 72 h, read-out: Cellular IC50(μM) Jurkat J.gammal.
The subject of a further assay is Jurkat J.gamma1. As to conditions: mutant Jurkat cell line without detectable PLCγ1 activity; cited from earlier work.

The structures appear in SMILES notation.

Chain of HDAC 1 (Q13547 whole entry): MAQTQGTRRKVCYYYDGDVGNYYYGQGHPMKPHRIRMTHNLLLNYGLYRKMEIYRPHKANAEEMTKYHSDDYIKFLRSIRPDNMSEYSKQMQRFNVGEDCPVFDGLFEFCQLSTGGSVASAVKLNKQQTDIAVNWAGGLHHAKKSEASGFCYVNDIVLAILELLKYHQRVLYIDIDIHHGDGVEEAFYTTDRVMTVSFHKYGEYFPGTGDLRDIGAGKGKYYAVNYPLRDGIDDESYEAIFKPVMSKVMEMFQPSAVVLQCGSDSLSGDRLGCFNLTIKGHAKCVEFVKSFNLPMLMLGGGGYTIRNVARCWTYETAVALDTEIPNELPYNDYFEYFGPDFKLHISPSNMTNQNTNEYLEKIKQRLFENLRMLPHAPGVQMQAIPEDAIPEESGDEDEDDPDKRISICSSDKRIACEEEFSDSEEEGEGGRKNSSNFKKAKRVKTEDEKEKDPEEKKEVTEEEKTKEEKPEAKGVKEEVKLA

Usually IC50 stands for the concentration needed to halve the response being measured. For the molecule `Oc1ccc[nH]c1=S` [Compound 3-HPT, 3-hydroxypyridin-2-thione], the “HDAC 1 inhibition (result in words)” value at HDAC 1 was “no inhibition”. Also, in assay [1], the “LNCaP anti-proliferative activity (result in words)” value is “inactive”. The IC50 is greater than 20 µM in [1] (Homo sapiens, LNCaP, read-out: Cellular IC50(μM) LNCaP); greater than 20 µM in assay [2] (Homo sapiens, DU-145, read-out: Cellular IC50(μM) DU-145); greater than 20 µM in assay [3] (Homo sapiens, Jurkat, 72 h, read-out: Cellular IC50(μM) Jurkat). Besides, the “DU-145 anti-proliferative activity (result in words)” value in assay [2] was “inactive”. For the same molecule, the “Jurkat anti-proliferative activity (result in words)” value in [3] was “inactive”.
Turning to `Cn1cccc(O)c1=O` [Compound 5a, 1-Methyl-3-hydroxypyridin-2-one], the “HDAC 8 inhibition (result in words)” value on HDAC 8 is “failed to inhibit”. The “HDAC 6 inhibition (result in words)” value at HDAC 6 is given as “failed to inhibit”. Besides, on HDAC 1, the “HDAC 1 inhibition (result in words)” value is “failed to inhibit”.
`O=c1c(O)cccn1Cc1ccccc1` [Compound 5b, 1-Benzyl-3-hydroxypyridin-2-one]: the “HDAC 8 inhibition (result in words)” value at HDAC 8 is reported as “failed to inhibit”. Moreover, the “HDAC 6 inhibition (result in words)” value at HDAC 6 was “failed to inhibit”. The “HDAC 1 inhibition (result in words)” value at HDAC 1 was “failed to inhibit”.
`O=c1c(O)cccn1Cc1ccc(-c2ccccc2)cc1` [Compound 5c, 1-(1,1'-Biphenylmethyl)-3-hydroxypyridin-2-one]: the “HDAC 8 inhibition (result in words)” value at HDAC 8 is given as “failed to inhibit”. For the same molecule, on HDAC 6, the “HDAC 6 inhibition (result in words)” value was “failed to inhibit”. Further, the “HDAC 1 inhibition (result in words)” value on HDAC 1 was “failed to inhibit”.
Consider `Oc1cccn(Cc2ccccc2)c1=S` [Compound 7b, 1-Benzyl-3-hydroxypyridin-2-thione], for which the “HDAC 1 inhibition (result in words)” value on HDAC 1 is “neither 7b nor 7c possess any measurable activity”.
Same read-out and setting: then `Oc1cccn(Cc2ccc(-c3ccccc3)cc2)c1=S` [Compound 7c, 1-(1,1'-Biphenylmethyl)-3-hydroxypyridin-2-thione], with “neither 7b nor 7c possess any measurable activity”.
`N#Cc1ccc(-c2ccc(Cn3cccc(O)c3=S)cc2)cc1` [Compound 12a, 1-(4-Cyano-(1,1'-biphenylmethyl))-3-hydroxyoxypyridin-2-thione]: the “HDAC 8 inhibition relative to 7c” value on HDAC 8 is on record as “about 2 fold”.
Consider `N#Cc1cccc(-c2ccc(Cn3cccc(O)c3=S)cc2)c1` [Compound 12b, 1-(3-Cyano-(1,1'-biphenylmethyl))-3-hydroxyoxypyridin-2-thione], for which the “HDAC 6 inhibition (result in words)” value on HDAC 6 is recorded as “abrogation of HDAC 6 inhibition”.
In the case of `Cc1ccccc1-c1ccc(Cn2cccc(O)c2=S)cc1` [Compound 12f, 1-(2-Methyl-(1,1'-biphenylmethyl))-3-hydroxyoxypyridin-2-thione], the “tubulin acetylation (Western blot)” value in assay [4] is “increase in tubulin acetylation”. Moreover, in [5], the “Jurkat J.gamma1 anti-proliferative activity (result in words)” value was “non-cytotoxic” and the concentration for half-maximal inhibition (IC50) was greater than 20 µM. Besides, in assay [2], the “DU-145 anti-proliferative activity (result in words)” value is “weak activity”.
For the molecule `CN(C)c1ccc(-c2ccc(Cn3cccc(O)c3=S)cc2)cc1` [Compound 12g, 1-(4-Dimethylamino-(1,1'-biphenylmethyl))-3-hydroxyoxypyridin-2-thione], the “HDAC 8 inhibition relative to 7c” value on HDAC 8 was “about 2 fold”. On HDAC 6, the “HDAC 6 inhibition (result in words)” value is listed as “loss of HDAC 6 inhibition”. Besides, in assay [5], the “Jurkat J.gamma1 anti-proliferative activity (result in words)” value is on record as “devoid of anti-proliferative activity” and the half-inhibitory concentration (IC50) was greater than 20 µM.
Regarding `CN(C)c1ccc(-c2ccc(Cn3cccc(O)c3=S)cc2)cn1` [Compound 12h], at HDAC 8, the “HDAC 8 inhibition (result in words)” value is on record as “loss of HDAC 8 inhibition”.
As to `O=c1c(O)cccn1Cc1cn(-c2ccccc2)nn1` [Compound 15a, 1-Phenyltriazolylmethyl-3-hydroxypyridin-2-one], the “HDAC 8 inhibition (result in words)” value at HDAC 8 is “inactive”. For the same molecule, the “HDAC 6 inhibition (result in words)” value on HDAC 6 is “inactive”. The “HDAC 1 inhibition (result in words)” value on HDAC 1 was “inactive”.
As for `Oc1cccn(Cc2cn(-c3ccccc3)nn2)c1=S` [Compound 17a, 1-Phenyltriazolylmethyl-3-hydroxypyridin-2-thione], the “HDAC 8 inhibition relative to 7c” value at HDAC 8 fell in the range of 2 to 3 fold. On HDAC 6, the “HDAC 6 inhibition (result in words)” value is on record as “only marginally inhibitory”. Further, in assay [5], the “Jurkat J.gamma1 anti-proliferative activity (result in words)” value is recorded as “devoid of anti-proliferative activity” and the half-inhibitory concentration (IC50) is greater than 20 µM.
Regarding `COc1ccc(Cn2ccc3ccc(C(=O)NO)cc32)cc1` [PCI-34051], in the assay on Jurkat J.gamma1, the “apoptosis induction in Jurkat J.gamma1” value is on record as “lost its ability to induce apoptosis”.
As for `O=C(CCCCCCC(=O)Nc1ccccc1)NO` [SAHA, suberoylanilide hydroxamic acid, reference compound], the “tubulin acetylation (Western blot)” value in assay [4] was “concentration dependent tubulin hyperacetylation”. In addition, the “Jurkat J.gamma1 anti-proliferative activity (result in words)” value in assay [5] is reported as “non-cytotoxic”.
